Measurements from patent publication US6737383B1, “Herbicidal oxadiazolidines” (priority 1999, dated 2004).

Tests used:
bedstraw = experiment: Test B pre/postemergence bedstraw; type: in vivo, Galium aparine; settings: Preemergence
How it was run: (§1)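 Herbicidal effect was estimated by eye on a ten-point control scale after plants spent twelve to sixteen days in a greenhouse following soil or foliar treatment. Foliar sprays targeted plants at one to four leaves; all doses were formulated in a non-phytotoxic solvent with surfactant.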

blackgrass = experiment: Test B pre/postemergence blackgrass; type: in vivo, Alopecurus myosuroides
How it was run: as §1

surinam grass = experiment: Test B pre/postemergence surinam grass; type: in vivo, Brachiaria decumbens
How it was run: as §1

cocklebur = experiment: Test B pre/postemergence cocklebur; type: in vivo, Xanthium strumarium
How it was run: as §1

corn = experiment: Test B pre/postemergence corn; type: in vivo, Zea mays
How it was run: as §1

crabgrass = experiment: Test B pre/postemergence crabgrass; type: in vivo, Digitaria sanguinalis
How it was run: as §1

giant foxtail = experiment: Test B pre/postemergence giant foxtail; type: in vivo, Setaria faberii
How it was run: as §1

morningglory = experiment: Test B pre/postemergence morningglory; type: in vivo, Ipomoea hederacea
How it was run: as §1

pigweed = experiment: Test B pre/postemergence pigweed; type: in vivo, Amaranthus retroflexus
How it was run: as §1

rape = experiment: Test B pre/postemergence rape; type: in vivo, Brassica napus
How it was run: as §1

soybean = experiment: Test B pre/postemergence soybean; type: in vivo, Glycine max
How it was run: as §1

sugar beet = experiment: Test B pre/postemergence sugar beet; type: in vivo, Beta vulgaris
How it was run: as §1

velvetleaf = experiment: Test B pre/postemergence velvetleaf; type: in vivo, Abutilon theophrasti
How it was run: as §1

wheat = experiment: Test B pre/postemergence wheat; type: in vivo, Triticum aestivum
How it was run: as §1

wild oat = experiment: Test B pre/postemergence wild oat; type: in vivo, Avena fatua
How it was run: as §1

purple nutsedge = experiment: Test B pre/postemergence purple nutsedge; type: in vivo, Cyperus rotundus
How it was run: as §1

[1] = Rate 500 g/ha, scale of 0 to 10 where 0 is no effect and 10 is complete control
[2] = Postemergence, Rate 62 g/ha, scale of 0 to 10, 0 is no effect, 10 is complete control
[3] = Postemergence, Rate 125 g/ha, scale 0 to 10, 0 is no effect, 10 is complete control
[4] = Preemergence, Rate 62 g/ha, scale 0 to 10 (0 no effect, 10 complete control)
[5] = Preemergence, Rate 125 g/ha, scale 0 to 10, 0 is no effect, 10 is complete control
[6] = Preemergence, Rate 500 g/ha, scale of 0 to 10 where 0 is no effect and 10 is complete control
[7] = Rate 250 g/ha, Postemergence, scale of 0 to 10 where 0 is no effect and 10 is complete control
[8] = Postemergence, Rate 500 g/ha, scale of 0 to 10 where 0 is no effect and 10 is complete control
[9] = Preemergence, Rate 62 g/ha, scale of 0 to 10 where 0 is no effect and 10 is complete control
[10] = Preemergence, Rate 125 g/ha, scale of 0 to 10 where 0 is no effect and 10 is complete control
[11] = Preemergence, Rate 250 g/ha, scale 0 to 10 (0 no effect, 10 complete control)

CC(C)=CCn1c(=O)on(C(=O)N(c2ccccc2)C(C)C)c1=O [Compound 574]
Bedstraw plant response rating (bedstraw; Rate 62 g/ha, scale 0 to 10 (0 no effect, 10 complete control)): 0 | Bedstraw plant response rating (bedstraw; Rate 125 g/ha, scale 0 to 10, 0 is no effect, 10 is complete control): 0 | Bedstraw plant response rating (0 to 10 scale) (bedstraw; Rate 250 g/ha): 0 | Bedstraw plant response rating (bedstraw; [1]): 0 | Blackgrass plant response rating (blackgrass; [2]): 2 | Blackgrass plant response rating (blackgrass; [3]): 6 | Blackgrass plant response rating (blackgrass; [4]): 0 | Blackgrass plant response rating (blackgrass; [5]): 0 | Blackgrass plant response rating (0 to 10 scale) (blackgrass; Preemergence, Rate 250 g/ha): 2 | Blackgrass plant response rating (blackgrass; [6]): 2 | Plant response rating, Blackgrass (blackgrass; [7]): 6 | B. signalgrass plant response rating (surinam grass; [2]): 0 | B. signalgrass plant response rating (surinam grass; [3]): 0 | Plant response rating, B. signalgrass (surinam grass; [8]): 0 | B. signalgrass plant response rating (surinam grass; [4]): 4 | B. signalgrass plant response rating (surinam grass; [5]): 7 | B. signalgrass plant response rating (0 to 10 scale, 0 is no effect, 10 is complete control) (surinam grass; Preemergence, Rate 250 g/ha): 10 | B. signalgrass plant response rating (surinam grass; [6]): 9 | Plant response rating, B. signalgrass (surinam grass; [7]): 0 | Cocklebur plant response rating (cocklebur; [2]): 0 | Cocklebur plant response rating (cocklebur; [3]): 2 | Plant response rating, Cocklebur (cocklebur; [8]): 2 | Cocklebur plant response rating (cocklebur; [4]): 0 | Cocklebur plant response rating (cocklebur; [5]): 0 | Cocklebur plant response rating (0 to 10 scale) (cocklebur; Preemergence, Rate 250 g/ha): 0 | Cocklebur plant response rating (cocklebur; [6]): 0 | Plant response rating, Cocklebur (cocklebur; [7]): 2 | Corn plant response rating (corn; [2]): 0 | Corn plant response rating (corn; [3]): 0 | Plant response rating, Corn (corn; [8]): 0 | Corn plant response rating (corn; [4]): 0 | Corn plant response rating (corn; [5]): 0 | Corn plant response rating (0 to 10 scale) (corn; Preemergence, Rate 250 g/ha): 0 | Corn plant response rating (corn; [6]): 0 | Plant response rating, Corn (corn; [7]): 0 | Crabgrass plant response rating (crabgrass; [2]): 0 | Crabgrass plant response rating (crabgrass; [3]): 2 | Plant response rating, Crabgrass (crabgrass; [8]): 2 | Crabgrass plant response rating (crabgrass; [4]): 2 | Crabgrass plant response rating (crabgrass; [5]): 9 | Crabgrass plant response rating (0 to 10 scale) (crabgrass; Preemergence, Rate 250 g/ha): 9 | Crabgrass plant response rating (crabgrass; [6]): 9 | Giant foxtail plant response rating (giant foxtail; [2]): 2 | Giant foxtail plant response rating (giant foxtail; [3]): 7 | Plant response rating, Giant foxtail (giant foxtail; [8]): 8 | Giant foxtail plant response rating (giant foxtail; [4]): 9 | Giant foxtail plant response rating (giant foxtail; [5]): 10 | Giant foxtail plant response rating (0 to 10 scale) (giant foxtail; Preemergence, Rate 250 g/ha): 10 | Giant foxtail plant response rating (giant foxtail; [6]): 10 | Plant response rating, Giant foxtail (giant foxtail; [7]): 6 | Morningglory plant response rating (morningglory; [2]): 10 | Morningglory plant response rating (morningglory; [3]): 10 | Plant response rating, Morningglory (morningglory; [8]): 10 | Morningglory plant response rating (morningglory; [4]): 0 | Morningglory plant response rating (morningglory; [5]): 0 | Morningglory plant response rating (0 to 10 scale) (morningglory; Preemergence, Rate 250 g/ha): 0 | Morningglory plant response rating (morningglory; [6]): 0 | Plant response rating, Morningglory (morningglory; [7]): 10 | Plant response rating, Redroot pigweed (pigweed; [8]): 5 | Redroot pigweed plant response rating (pigweed; [4]): 0 | Redroot pigweed plant response rating (pigweed; [5]): 0 | Redroot pigweed plant response rating (pigweed; [6]): 9 | Plant response rating, Redroot pigweed (pigweed; [7]): 0 | Rape plant response rating (rape; [2]): 0 | Rape plant response rating (rape; [3]): 0 | Plant response rating, Rape (rape; [8]): 3 | Rape plant response rating (rape; [4]): 0 | Rape plant response rating (rape; [5]): 0 | Rape plant response rating (0 to 10 scale) (rape; Preemergence, Rate 250 g/ha): 0 | Rape plant response rating (rape; [6]): 0 | Plant response rating, Rape (rape; [7]): 0 | Plant response rating, Soybean (soybean; [8]): 7 | Soybean plant response rating (soybean; [4]): 0 | Soybean plant response rating (soybean; [5]): 0 | Soybean plant response rating (0 to 10 scale) (soybean; Preemergence, Rate 250 g/ha): 0 | Soybean plant response rating (soybean; [6]): 0 | Plant response rating, Soybean (soybean; [7]): 6 | Plant response rating, Sugarbeets (sugar beet; [8]): 0 | Sugarbeets plant response rating (sugar beet; [4]): 0 | Sugarbeets plant response rating (sugar beet; [5]): 0 | Sugarbeets plant response rating (0 to 10 scale) (sugar beet; Preemergence, Rate 250 g/ha): 0 | Sugarbeets plant response rating (sugar beet; [6]): 3 | Plant response rating, Sugarbeets (sugar beet; [7]): 0 | Plant response rating, Velvetleaf (velvetleaf; [8]): 2 | Velvetleaf plant response rating (velvetleaf; [4]): 0 | Velvetleaf plant response rating (velvetleaf; [5]): 0 | Velvetleaf plant response rating (0 to 10 scale) (velvetleaf; Preemergence, Rate 250 g/ha): 2 | Velvetleaf plant response rating (velvetleaf; [6]): 2 | Plant response rating, Velvetleaf (velvetleaf; [7]): 2 | Plant response rating, Wheat (wheat; [8]): 2 | Wheat plant response rating (wheat; [4]): 0 | Wheat plant response rating (wheat; [5]): 0 | Wheat plant response rating (0 to 10 scale) (wheat; Preemergence, Rate 250 g/ha): 0 | Wheat plant response rating (wheat; [6]): 0 | Plant response rating, Wheat (wheat; [7]): 0 | Plant response rating, Wild oats (wild oat; [8]): 0 | Wild oats plant response rating (wild oat; [4]): 0 | Wild oats plant response rating (wild oat; [5]): 0 | Wild oats plant response rating (0 to 10 scale) (wild oat; Preemergence, Rate 250 g/ha): 0 | Wild oats plant response rating (wild oat; [6]): 3 | Plant response rating, Wild oats (wild oat; [7]): 0 | Nutsedge plant response rating (purple nutsedge; [2]): 0 | Plant response rating, Nutsedge (purple nutsedge; [8]): 0 | Nutsedge plant response rating (purple nutsedge; [4]): 0 | Nutsedge plant response rating (purple nutsedge; [5]): 0 | Nutsedge plant response rating (0 to 10 scale) (purple nutsedge; Preemergence, Rate 250 g/ha): 0 | Nutsedge plant response rating (purple nutsedge; [6]): 0 | Plant response rating, Nutsedge (purple nutsedge; [7]): 0

CCC(C)N(C(=O)n1oc(=O)n(C(C)C)c1=O)c1ccc(F)cc1 (stereo not drawn) [Compound 689]
Bedstraw plant response rating (bedstraw; Rate 62 g/ha, scale of 0 to 10 where 0 is no effect and 10 is complete control): 0 | Plant response rating, Bedstraw (bedstraw; Rate 125 g/ha, scale of 0 to 10 where 0 is no effect and 10 is complete control): 0 | Plant response rating, Bedstraw (bedstraw; Rate 250 g/ha, scale 0 to 10 (0 no effect, 10 complete control)): 7 | Plant response rating, Bedstraw (bedstraw; [1]): 5 | Blackgrass plant response rating (blackgrass; [9]): 9 | Plant response rating, Blackgrass (blackgrass; [10]): 9 | Plant response rating, Blackgrass (blackgrass; [11]): 10 | Plant response rating, Blackgrass (blackgrass; [6]): 10 | B. signalgrass plant response rating (surinam grass; [9]): 2 | Plant response rating, B. signalgrass (surinam grass; [10]): 4 | Plant response rating, B. signalgrass (surinam grass; [11]): 9 | Plant response rating, B. signalgrass (surinam grass; [6]): 10 | Cocklebur plant response rating (cocklebur; [9]): 0 | Plant response rating, Cocklebur (cocklebur; [10]): 0 | Plant response rating, Cocklebur (cocklebur; [11]): 0 | Plant response rating, Cocklebur (cocklebur; [6]): 0 | Corn plant response rating (corn; [9]): 0 | Plant response rating, Corn (corn; [10]): 6 | Plant response rating, Corn (corn; [11]): 9 | Crabgrass plant response rating (crabgrass; [9]): 9 | Plant response rating, Crabgrass (crabgrass; [10]): 9 | Plant response rating, Crabgrass (crabgrass; [11]): 10 | Giant foxtail plant response rating (giant foxtail; [9]): 10 | Plant response rating, Giant foxtail (giant foxtail; [10]): 10 | Morningglory plant response rating (morningglory; [9]): 0 | Plant response rating, Morningglory (morningglory; [10]): 3 | Redroot pigweed plant response rating (pigweed; [9]): 3 | Plant response rating, Redroot pigweed (pigweed; [10]): 7 | Rape plant response rating (rape; [9]): 0 | Plant response rating, Rape (rape; [10]): 0 | Soybean plant response rating (soybean; [9]): 0 | Plant response rating, Soybean (soybean; [10]): 0 | Sugarbeets plant response rating (sugar beet; [9]): 0 | Plant response rating, Sugarbeets (sugar beet; [10]): 2 | Velvetleaf plant response rating (velvetleaf; [9]): 2 | Plant response rating, Velvetleaf (velvetleaf; [10]): 3 | Wheat plant response rating (wheat; [9]): 0 | Plant response rating, Wheat (wheat; [10]): 0 | Wild oats plant response rating (wild oat; [9]): 7 | Plant response rating, Wild oats (wild oat; [10]): 9 | Nutsedge plant response rating (purple nutsedge; [9]): 0 | Plant response rating, Nutsedge (purple nutsedge; [10]): 0
